Test [1] deals with BT-474 cells. The test is described as follows: MTT cell viability assay, BT-474. The settings on record: FIG. 43, FIG. 48. It is filed as cell-based. On the technique in general: Formazan colour is commonly taken as a measure of viable cells.
Test [2] deals with Akt, MAPK, GSK3-β, snail, slug, KLF4 in SK-BR-3 cells. In words: Western blot of erbB downstream signaling and Snail/Slug, SK-BR-3. It is filed as cell-based, human. For orientation: Immunoblotting shows a protein as a band on a membrane.
Test [3] has as its system Akt, MAPK, snail in MDA-MB-453 cells. In words: Western blot of signaling and snail, MDA-MB-453. It is filed as cell-based. The settings on record: 24 hours (FIG. 20B).
The subject of test [4] is H2N113 tumors. It is filed as in vivo.
For test [5], the system named is SK-BR-3 cells. The test is described as follows: Soft agar growth (foci formation) assay, SK-BR-3. The class given is cell-based, human. The settings on record: 14 days in soft agar, ImageJ.
Test [6] deals with MCF10A cells. The test is described as follows: MTT cell viability assay, MCF10A. It is filed as cell-based. As to conditions: 8 days.
The subject of test [7] is MDA-MB-231 cells. The test is described as follows: MTT cell viability assay, MDA-MB-231. The settings on record: FIG. 43 / FIG. 55C. The class given is cell-based.
Test [8] deals with H2N113 (IFNγR KD) tumors. The test is described as follows: Implanted H2N113 (IFNγR KD) tumor growth in MMTV-neu mice. The class given is in vivo, mouse. As to conditions: suboptimal 7.16.4 1.5 mg/kg; IFN-γ 5×10^5 IU/kg (FIG. 33).
The test system of test [9] is class I and class II MHC antigens in SKBR3 cells. The test is described as follows: MHC expression in SKBR3 cells by FACS. The settings on record: FIG. 4. The class given is cell-based, human.
Test [10] relates to MDSC. In words: In vitro MDSC migration assay (Transwell, H2N113 conditioned medium). The class given is cell-based, mouse. As to conditions: H2N113 treated 3 days (FIG. 9).
For test [11], the system named is H2N113 cells. In words: Cytotoxicity assay of spleen CD8+ T cells from treated mice. It is filed as in vivo, mouse. As to conditions: suboptimal mAb and IFN-γ (FIG. 52).
In test [12] the test system is PD-L1. The test is described as follows: PD-L1 expression in treated tumors. The class given is in vivo, mouse. As to conditions: FIG. 60A. How it is done:
FIG. 60A-FIG. 60C. PD-L1 expression is increased in tumors treated with IFN-γ. FIG. 60A—Western blotting was performed with anti-PD-L1 antibody with the tumors from each indicated group of mice after treatment in the same way as FIG. 59A. FIG. 60B—FACS analysis of PD-L1 expression in tumor cells from control IgG and 7.16.4+IFN-γ treated mice. Tumor cells are gated as CD45-large size cells which we confirmed most of them are tumor cells by 7.16.4 antibody. **P<0.02. FIG. 60C—Administration of anti-PD-L1 antibody with the ordered therapy. Mice were treated with control PBS, 7.16.4 (1.5 mg/kg, three times per week) and anti-PDL1 (5 mg/kg, twice per week), 7.16.4 and IFN-γ ([…], three times per week), or the combination of IFN-γ, 7.16.4 and anti-PD-L1. Data represent mean+SEM.
This is also consistent with why IFN-γ alone is not useful for cancer therapy (Zaidi and Merlino, 2011). […] It is possible that PD-L1 acts as a negative immune regulator induced by IFN-γ treatment alone. […] To determine if PD-L1 can be further targeted for this ordered therapy, we used anti-PD-L1 antibody along with 7.16.4 and IFN-γ.

Test [13] relates to H2N113 (IFNγR KD) cells. In words: IFN-γ response of H2N113 (IFNγR KD) cells in vitro. The class given is cell-based, mouse.
[14] abbreviates: inhibitor added during final 8 hours of two-day 4D5 and IFN-γ treatment.

The source of these data is US11446516B2, “Methods of increasing response to cancer radiation therapy” (THE TRUSTEES OF THE UNIVERSITY OF PENNSYLVANIA, priority 2013, dated 2022).

“Also recorded” adds a separate entry of the source. Where two headings read alike, the source gives them in different places. Where a SMILES comes first, the peptide text is derived from it. The star is where a group is joined. Cbz = O=C(OCc1ccccc1)*

Consider `CC/C(=C(\c1ccc(O)cc1)c1ccc(OCCN(C)C)cc1)c1ccccc1` [4-OH tamoxifen], for which the cell viability entry in test [1] is reported as “reduced viability in the cIgG-treated cells; also recorded: complemented 4D5 treatment; also recorded: did not further sensitize the cells to IFN-γ in combination with 4D5”.

In the case of `CS(=O)(=O)CCNCc1ccc(-c2ccc3ncnc(Nc4ccc(OCc5cccc(F)c5)c(Cl)c4)c3c2)o1` [lapatinib, Lapatinib], the Akt pathway activity result in test [2] (24 hours (FIG. 20A, 20B)) is “inactivated; also recorded: diminished Akt activity in both cell lines”. In test [2] (Western blot), the slug protein level result is listed as “not slug” and the snail protein level entry was “dose-dependent reduction in snail”. Besides, in test [3], the Akt activity result is given as “diminished Akt activity in both cell lines” and the snail protein level result is recorded as “snail is reduced upon lapatinib treatment”.

Consider `CC(C)C[C@@H](C=O)NC(=O)[C@H](CC(C)C)NC(=O)[C@H](CC(C)C)NC(=O)OCc1ccccc1` [MG-132] (Cbz-Leu-Leu-Leu-aldehyde), for which, in test [2] (setting [14]), the “slug content under 4D5 and IFN-γ co-treatment” value was “no change in slug content”; the “snail content under 4D5 and IFN-γ co-treatment” value (from here on “snail content”) is “inhibited the co-treatment-mediated reduction of snail in a dose-dependent manner”.

On to `Cc1c[nH]c(-c2cnc(NCCNc3ccc(C#N)cn3)nc2-c2ccc(Cl)cc2Cl)n1` [CHIR99021], for which, in test [2] (setting [14]), the “slug content under 4D5 and IFN-γ co-treatment” value was “no change in slug content”; the “snail content” value was “dose-dependent rescue of snail”.

For the molecule `O.O=C(O)C(F)(F)F.O=c1[nH]c2ccccc2n1C1CCN(Cc2ccc(-c3nc4cc5[nH]cnc5cc4nc3-c3ccccc3)cc2)CC1` [Akt1/2 inhibitor], in test [2] (Western blot), the snail protein level entry is “dose-dependent decrease in snail content”.

Take IFNα: the “anti-tumor activity of IFNα on its own” value in test [4] (FIG. 7) is reported as “appears to have anti-tumor activity on its own”. Further, the “enhancement of mAb 7.16.4 activity to suppress tumor growth” value in [4] (IFNα in combination with mAb 7.16.4 (FIG. 7)) is reported as “could not enhance mAb 7.16.4 activity”.

As to `CCN(CC)CCCC(C)Nc1ccnc2cc(Cl)ccc12` (stereo not shown) [chloroquine], the “snail content” value in test [2] was “increased snail content but was unable to rescue”.

B1: IFN-γ: recombinant interferon-gamma (SEQ ID NO: 5) (protein)
chain: QDPYVKEAENLKKYFNAGHSDVADNGTLFLGILKNWKEESDRKIMQSQIVSFYFKLFKNFKDDQSIQKSVETIKEDMNVKFFNSNKKKRDDFEKLTNYSVTDLNVQRKAIHELIQVMAELSPAAKTGKRKRSQ
modifications: IFN-gamma
On to B1, for which the “percentage of foci greater than 20 pixels” value in test [5] is given as 52±8%. Besides, the “percentage of foci less than 20 pixels” value in test [5] was 48±8%. Moreover, the cell viability entry in [6] is on record as “minimal changes to their viability”; in test [7], “did respond to IFN-γ alone”. For the same molecule, the GSK3-β activation result in [2] (Western blot (FIG. 21A)) is “unable to do so”. Further, in test [4] (BALB/c mice, 7.16.4 1.5 mg/kg, IFN-γ 5×10^5 IU/kg (FIG. 26)), the tumor volumes result is “demonstrable effect”. Further, the tumor growth entry in test [4] (MMTV-neu mice, 7.16.4 1.5 mg/kg twice per week, IFN-γ 5×10^5 IU/kg three times per week (FIG. 1), 1.5 mg/kg) is “aggressive tumor growth; also recorded: failed to significantly inhibit tumor growth”; in [8], “no effect on its own”. Further, the “class II MHC antigen expression” value in [9] is “no effect”. In test [10], the “MDSC migration induced by H2N113 conditioned medium” value is given as “no appreciable effects”. Further, the “effector CD8+ T cell activity against H2N113 cells” value in test [11] is “negligible effects”. Further, in test [12], the “PD-L1 expression in tumor tissues” value is recorded as “dramatically induced PD-L1 expression”. Moreover, the “IFN-γ mediated growth suppression” value in test [13] (5 days, LDH activity (FIG. 32C)) is given as “resistant to IFN-γ mediated growth suppression”. The “IFN-γ induced MHC expression” value in test [13] (FIG. 32B) was “diminished”.
